Patent US6555114B1, “Immunodominant human T-cell epitopes of hepatitis C virus” (Innogenetics N.V., priority 1993, dated 2003)

Columns and labels:
[1] = test system: PBMC from 32 patients with chronic HCV; test: T cell proliferation assay ((3H)-thymidine incorporation, stimulation index) with PBMC of chronic HCV patients; format: cell-based, human; settings: for number of patients that recognized the single peptide: 8 proliferative responders to pools 2 and/or 3 among 11 interferon-responder HCV patients; for LPR in αIFN responders (summary of Table 7): both αIFN responders tested; for lymphoproliferative response (LPR) to peptide pools and single peptides: IFN responder, LPR to pools 2 and/or 3; for LPR in αIFN non-responders (summary of Table 7): two αIFN non-responders
[2] = test system: PBMC's from 18 healthy control subjects; test: T cell proliferation assay with PBMC of healthy control subjects; format: cell-based, human; settings: 17 control subjects, 23 proliferation assays
Experimental: As controls for the specificity of the lymphoproliferative responses, 18 healthy individuals aged 25-58 years (mean 38.6), 10 males and 8 females were selected. These subjects were negative for HCV antibodies and HCV-RNA.
The medium used for all cell cultures consisted of RPMI 1640 supplemented with 25 mM HEPES, 2 mM L-glutamine, 50 U/ml penicillin and 50 μg/ml streptomycin (all from Gibco Europe, Gent, Belgium), 5×10^−5 M 2-mercaptoethanol (Sigma, St. Louis, Mo.) and 10% heat-inactivated pooled human AB serum. This AB serum was obtained from healthy blood donors with blood group AB^+ and was only used when antibodies to HCV and HCV-RNA were absent. This “complemented” RPMI 1640 medium will hereafter be designated “complete medium”.
PBMC were isolated from heparinized venous blood by isopycnic density centrifugation on Ficoll Hypaque (Lymphoprep, Nyegaard, Denmark) and suspended in complete medium. […] PBMC in 200 μl of complete medium were cultured in 96 well round-bottomed microplates (Falcon Plastics) in the absence (unstimulated controls) or presence of varying concentrations of antigens for 5 days at 37° C. in an atmosphere of 5% CO2 in air. 0.5 μCi (^3H)-thymidine was then added to each well and 16 to 20 h later the cultures were harvested onto glass fiber filters using a multichannel cell harvester (PHD, Cambridge, Mass.) to measure the incorporation of (^3H)-thymidine by liquid scintillation counting in an LKB-Wallac 8100 counter (LKB, Bromma, Sweden). Results are expressed as stimulation index (SI; mean cpm of antigen-stimulated cultures/mean cpm of control cultures). Proliferation was considered positive when stimulation index was >3. In some figures the results are expressed as cpm (mean cpm of antigen-stimulated cultures—mean cpm of control cultures). Standard deviations of the mean cpm of triplicate cultures were consistently below 10%.
To analyze and summarize the results of 135 assays performed in the 32 HCV patients, we have chosen to consider the response of an individual patient to a particular antigen preparation (peptide pools 1 to 9, NS1-5*, NS1-7* or NS3 protein) as significant when it induces SI's 3 in at least half of the assays performed. The results shown in Table 4 have been obtained using this scoring method. […] The start of the Interferon therapy serves as the reference point, week 0. None of the patients responded to all the antigens. PBMC's from 13 of 18 (72%) clinical responders and 12 of 14 (85%) non-responders proliferated in response to at least one antigen preparation. All but one antigen preparation, peptide pool 8, induced a proliferative response in at least one subject. The most frequent responses were to peptide pools 2 and 3. Whereas both interferon-responders and non-responders proliferated equally well to peptide pool 2 (56% and 57%, respectively), non-responders reacted less well to peptide pool 3 (29% or 4 of 14) than responders (44% or 8 of 18). […] Clinical non-responders to interferon therapy also reacted more frequently (57 or 8 of 14) upon stimulation with the NS3 protein than responders (24% or 4 of 17). However, none of these differences in proliferative response rates to peptide pools 3, 5 and 9 or to NS3 protein reached statistical significance ([…] in ^2-test). […] Indeed, 8 of 17 responders recognized one or both peptides while none of the non-responders did so. A summary of the results of all these proliferation assays is provided in FIG. 2, in which the response rates of the HCV patients as well as 18 healthy control subjects towards the 12 antigen preparations. Indeed, to establish the relevance of the proliferative responses observed in HCV patients, PBMC's from 18 healthy control subjects were stimulated with the same antigen preparations. Overall, 27 assays were performed: a single assay in 10 subjects, two in 7 volunteers and 3 in one individual. In 12 control subjects none of the antigens induced a proliferative response. […]

[3] = patient 618, pools 4 assays, single peptides 1 assay
[4] = patient 620, αIFN non-responder (NR), week 20 of αIFN therapy
[5] = patient 621, pools 4 assays, single peptides 1 assay
[6] = patient 626, pools 9 assays, single peptides 5 assays
[7] = patient 626, αIFN responder (R), week 14 of αIFN therapy
[8] = patient 627, αIFN non-responder (NR), week 54 of αIFN therapy
[9] = patient 632, pools 8 assays, single peptides 4 assays
[10] = patient 636, αIFN responder (R), week 28 of αIFN therapy
[11] = patient 637, αIFN non-responder (NR), week 45 of αIFN therapy
[12] = patient 639, pools 4 assays, single peptides 2 assays
[13] = patient 615, pools 2 assays, single peptides 1 assay
[14] = patient 634, pools 2 assays, single peptides 1 assay

| Substance | number of patients that recognized the single peptide [1] | LPR in αIFN responders (summary of Table 7) [1] | lymphoproliferative response (LPR) to peptide pools and single peptides [1, 3] | stimulation index (SI), T-cell recognition [1, 4] | lymphoproliferative response (LPR) to peptide pools and single peptides [1, 5] | lymphoproliferative response (LPR) to peptide pools and single peptides [1, 6] | stimulation index (SI), T-cell recognition [1, 7] | stimulation index (SI), T-cell recognition [1, 8] | lymphoproliferative response (LPR) to peptide pools and single peptides [1, 9] | stimulation index (SI), T-cell recognition [1, 10] | stimulation index (SI), T-cell recognition [1, 11] | lymphoproliferative response (LPR) to peptide pools and single peptides [1, 12] | number of control subjects that recognized the single peptide [2] | share of control subjects that recognized the single peptide [2] [%] | LPR in αIFN non-responders (summary of Table 7) [1] | lymphoproliferative response (LPR) to peptide pools and single peptides ([1]; patient 604, pools 2 assays, single peptides 1 assay) | lymphoproliferative response (LPR) to peptide pools and single peptides [1, 13] | lymphoproliferative response (LPR) to peptide pools and single peptides [1, 14] |
| --- | --- | --- | --- | --- | --- | --- | --- | --- | --- | --- | --- | --- | --- | --- | --- | --- | --- | --- |
| GGAARALAHGVRVLEDGVNY (hepatitis C virus) [C25] | 5 | highest LPR | + (significant when it induces SI's 3 in at least half of the assays performed) | — (Only SI equal or greater than 3 are shown.) | + (significant when it induces SI's 3 in at least half of the assays performed) | + (significant when it induces SI's 3 in at least half of the assays performed) | 6 | — (Only SI equal or greater than 3 are shown.) | + (significant when it induces SI's 3 in at least half of the assays performed) | 9.7 | — (Only SI equal or greater than 3 are shown.) | + (significant when it induces SI's 3 in at least half of the assays performed) |  |  |  |  |  |  |
| GRTWAQPGYPWPLYGNEGCG (hepatitis C virus) [C13] |  | highest LPR |  |  |  |  | 4.4 | — (Only SI equal or greater than 3 are shown.) |  | 6.3 | — (Only SI equal or greater than 3 are shown.) |  |  |  |  |  |  |  |
| KVIDTLTCGFADLMGYIPLV (hepatitis C virus) [C21] |  | highest LPR |  |  |  |  | 3.3 | 3.6 | + (significant when it induces SI's 3 in at least half of the assays performed) | — (Only SI equal or greater than 3 are shown.) | — (Only SI equal or greater than 3 are shown.) |  | 1 | 6 | high PLR |  |  |  |
| LMGYIPLVGAPLGGAARALA (hepatitis C virus) [C23] | 3 |  |  | 4.1 |  |  | — (Only SI equal or greater than 3 are shown.) | — (Only SI equal or greater than 3 are shown.) | + (significant when it induces SI's 3 in at least half of the assays performed) | — (Only SI equal or greater than 3 are shown.) | — (Only SI equal or greater than 3 are shown.) |  |  |  | high PLR | + (significant when it induces SI's 3 in at least half of the assays performed) | + (significant when it induces SI's 3 in at least half of the assays performed) |  |
| LPGCSFSIFLLALLSCLTVP [C29] |  |  |  | — (Only SI equal or greater than 3 are shown.) |  |  | — (Only SI equal or greater than 3 are shown.) | — (Only SI equal or greater than 3 are shown.) |  | — (Only SI equal or greater than 3 are shown.) | — (Only SI equal or greater than 3 are shown.) |  |  |  |  |  |  |  |
| LYGNEGCGWAGWLLSPRGSR (hepatitis C virus) [C15] |  |  |  |  |  |  | — (Only SI equal or greater than 3 are shown.) | — (Only SI equal or greater than 3 are shown.) |  | — (Only SI equal or greater than 3 are shown.) | — (Only SI equal or greater than 3 are shown.) |  |  |  |  |  |  |  |
| PTDPRRRSRNLGKVIDTLTC (hepatitis C virus) [C19] | 3 | highest LPR |  |  |  |  | — (Only SI equal or greater than 3 are shown.) | — (Only SI equal or greater than 3 are shown.) | + (significant when it induces SI's 3 in at least half of the assays performed) | 7.1 | — (Only SI equal or greater than 3 are shown.) | + (significant when it induces SI's 3 in at least half of the assays performed) |  |  |  |  |  | + (significant when it induces SI's 3 in at least half of the assays performed) |
| Tetanus toxoid [TT, reference compound] |  |  |  | 4.1 |  |  | 14.5 | 19.1 |  | 3.6 | 4.2 |  |  |  |  |  |  |  |
| VLEDGVNYATGNLPGCSFSI (hepatitis C virus) [C27] | 6 | highest LPR | + (significant when it induces SI's 3 in at least half of the assays performed) | — (Only SI equal or greater than 3 are shown.) | + (significant when it induces SI's 3 in at least half of the assays performed) | + (significant when it induces SI's 3 in at least half of the assays performed) | 8.2 | — (Only SI equal or greater than 3 are shown.) | + (significant when it induces SI's 3 in at least half of the assays performed) | 5.8 | — (Only SI equal or greater than 3 are shown.) | + (significant when it induces SI's 3 in at least half of the assays performed) |  |  |  |  | + (significant when it induces SI's 3 in at least half of the assays performed) | + (significant when it induces SI's 3 in at least half of the assays performed) |
